Measurements: ChEMBL document CHEMBL1150383, “Synthesis and pharmacological evaluation of peptide-mimetic protease-activated receptor-1 antagonists containing novel heterocyclic scaffolds” (Bioorg Med Chem, 2008)
Activity calls are given as the source filed them. The calls are words filed in the database; no cut-off is given here.

Assays:
[1] = molecular target: T1, Proteinase-activated receptor 1 (Homo sapiens) (UniProt P25116); experiment: Antagonist activity at PAR1 receptor assessed as inhibition of PAR1AP-induced platelet aggregation in human blood after 10 mins by chronolog dual channel aggregometry; assay type: functional
T1 sequence (whole entry): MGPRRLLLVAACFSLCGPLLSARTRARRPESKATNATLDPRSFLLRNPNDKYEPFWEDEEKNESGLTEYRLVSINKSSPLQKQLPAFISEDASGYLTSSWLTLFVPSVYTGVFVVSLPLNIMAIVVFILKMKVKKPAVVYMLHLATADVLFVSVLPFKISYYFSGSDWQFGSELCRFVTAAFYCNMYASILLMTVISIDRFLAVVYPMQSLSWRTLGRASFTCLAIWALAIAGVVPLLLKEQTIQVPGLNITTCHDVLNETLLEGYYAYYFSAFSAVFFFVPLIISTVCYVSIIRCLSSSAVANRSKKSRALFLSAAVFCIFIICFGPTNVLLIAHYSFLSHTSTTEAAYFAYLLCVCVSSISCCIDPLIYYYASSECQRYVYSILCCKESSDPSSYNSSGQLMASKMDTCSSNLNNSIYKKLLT

[2] = molecular target: T2, Proteinase-activated receptor 1 (Rattus norvegicus) (UniProt P26824); experiment: Antagonist activity at PAR1 receptor assessed as reduction of PAR1AP-induced aortic ring contraction in Wistar rat at 10 to 100 uM after 15 mins; assay type: functional
T2 sequence (whole entry): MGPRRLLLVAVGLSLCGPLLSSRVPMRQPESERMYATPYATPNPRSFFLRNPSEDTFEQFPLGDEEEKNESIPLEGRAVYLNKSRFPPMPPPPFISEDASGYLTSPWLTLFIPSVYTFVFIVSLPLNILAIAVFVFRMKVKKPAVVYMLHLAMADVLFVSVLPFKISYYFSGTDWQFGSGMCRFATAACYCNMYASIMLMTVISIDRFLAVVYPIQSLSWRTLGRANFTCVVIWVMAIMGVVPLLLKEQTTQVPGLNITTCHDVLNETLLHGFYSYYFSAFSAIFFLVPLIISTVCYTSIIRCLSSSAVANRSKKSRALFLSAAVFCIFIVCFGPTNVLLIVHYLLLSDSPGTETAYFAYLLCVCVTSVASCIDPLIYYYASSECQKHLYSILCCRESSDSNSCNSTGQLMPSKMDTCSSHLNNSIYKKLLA

Activity [1]	Activity [2]	IC75 [1]	SMILES
–	94 dyn/mg	100 nM	COc1ccc(C[C@H](NC(=O)Nc2ccc3c(CN4CCCC4)cn(Cc4c(Cl)cccc4Cl)c3c2)C(=O)N[C@@H](CCCNC(=N)N)C(=O)NCc2ccccc2)cc1
–	31 dyn/mg	50 nM	Cc1c(CN2CCCC2)c2ccc(NC(=O)N[C@@H](Cc3ccc(F)c(F)c3)C(=O)N[C@@H](CCCNC(=N)N)C(=O)NCc3ccccc3)cc2n1Cc1c(Cl)cccc1Cl
–	Active	20 nM	COc1ccc(C[C@H](NC(=O)Nc2ccc3c(CN4CCCC4)c(C)n(Cc4c(Cl)cccc4Cl)c3c2)C(=O)N[C@@H](CCCNC(=N)N)C(=O)NCc2ccccc2)cc1
inactive	inactive	–	Cc1c(CN2CCCC2)c2cc(NC(=O)N[C@@H](Cc3ccc4ccccc4c3)C(=O)N[C@@H](CCCNC(=N)N)C(=O)NCc3ccccc3)ccc2n1Cc1c(Cl)cccc1Cl

Second part, the compound before the results:

SMILES	Activity [1]	Activity [2]	IC75 [1]
COc1ccc(C[C@H](NC(=O)Nc2ccc3c(c2)c(CN2CCCC2)c(C)n3Cc2c(Cl)cccc2Cl)C(=O)N[C@@H](CCCNC(=N)N)C(=O)NCc2ccccc2)cc1	inactive	inactive	–
Cc1c(CN2CCCC2)c2cc(NC(=O)N[C@@H](Cc3cccc4ccccc34)C(=O)N[C@@H](CCCNC(=N)N)C(=O)NCc3ccccc3)ccc2n1Cc1c(Cl)cccc1Cl	inactive	inactive	–
Cc1c(CN2CCCC2)c2cc(NC(=O)N[C@@H](Cc3ccc(F)c(F)c3)C(=O)N[C@@H](CCCNC(=N)N)C(=O)NCc3ccccc3)ccc2n1Cc1c(Cl)cccc1Cl	inactive	inactive	–
Cc1c(CN2CCCC2)c2ccc(NC(=O)N[C@@H](Cc3ccc4ccccc4c3)C(=O)N[C@@H](CCCNC(=N)N)C(=O)NCc3ccccc3)cc2n1Cc1c(Cl)cccc1Cl	–	Active	800 nM
